Data taken from US20260328779A1, “METHODS AND COMPOSITIONS FOR THE DIAGNOSIS AND TREATMENT OF IGA NEPHROPATHY” (Beth Israel Deaconess Medical Center, Inc., priority 2022, published 2026).

Tested on: anti-Tn antibodies
Experiment: Inhibition of anti-Tn antibody binding to Tn(+)matrix beads (fluorescent anti-IgM imaging)
Conditions: 20 mM preincubation, 30 min on ice; anti-human IgM detection
Description: To investigate whether the interaction of the anti-Tn antibodies to the Tn(+)matrix is Tn antigen-dependent, fluorescent-tagged secondary antibodies were used to image the antibodies bound to the Tn(+)matrix. Strong staining for bound IgM (FIG. 3C, upper panel, green fluorescent) was observed, but no significant staining for either IgG or IgA (FIG. 3C, middle and bottom panels). The IgG and IgA1 levels in the bound material are thus either relatively low or these antigens could be cryptic within complexes and inaccessible in the context of the beads. […]
~50 ml of human sera was mixed with 1 ml of Tn(+)matrix beads (50% slurry in PBS) at 4° C. […] The concentration of eluted protein was determined by BCA assay (Cat #23225, Thermo Fisher Scientific). Each fraction (Input, Flow through (FT), Washes) was proportionally loaded, except elution 10 ml, and analyzed on SDS-PAGE, and stained with Coomassie, or transferred to nitrocellulose membrane (Cat #1704158, Bio-Rad) using Trans-Blot Turbo Transfer System (Bio-Rad). […] After washing 3× with TBST for 10 min, the signals were analyzed on an Amersham™ Imager 600 (GE Healthcare Life Sciences) using SuperSignal™ West Pico chemiluminescent substrate (Cat #34578, Thermo Scientific). […] The beads were washed twice with chilled 1 ml of PBS, and analyzed using a microscope (AMG EVOS FL digital inverted microscope, Fisher Scientific, ×100 magnification). […]

inhibition of binding of antibodies to the Tn(+)matrix: completely inhibited
SMILES: CO[C@H]1O[C@H](CO)[C@H](O)[C@H](O)[C@H]1NC(C)=O [α-methylGalNAc]
